Where a name gives a salt, the structure may show the parent alone.
Experiments:
[1] = system: mouse; conditions: cited from earlier work
[2] = system: rat; conditions: cited from earlier work
[3] = Non-hygroscopicity evaluation (water content by Karl-Fisher titrator after exposure to humid air); type: physicochemical; conditions: for moisture absorption (in words): humid atmosphere of 95% relative humidity
Description: Then, the water content of the samples was measured using a Karl-Fisher titrator. In Table 4, the water content of an active ingredient is expressed as a percentage of water content by weight (weight %).

[4] = Stability to heat (storage at 60° C., residual proportion by HPLC); type: physicochemical; conditions: for residual proportion of the initial level of active ingredient: 60° C.; for heat stability (in words): compared with sibutramine hydrochloride monohydrate
Description: (§1) The stability of an active ingredient used in a pharmaceutical composition to heat and light is a very important physical property during formulation into tablets and capsules and long-term storage. […] In detail, each compound was stored at 60° C. After 1, 2 and 4 weeks, the residual proportion of the initial level of an active ingredient was measured by high performance liquid chromatography (HPLC). Also, fluorescent light was radiated at 25° C. using a light stability test chamber suitable for the ICH guideline, and after 1, 2 and 4 weeks, the residual proportion of the initial level of an active ingredient was measured by HPLC.

[5] = Stability to light (fluorescent light at 25° C., ICH light stability chamber, residual proportion by HPLC); type: physicochemical; conditions: for residual proportion of the initial level of active ingredient: fluorescent light, 25° C.; for photostability (in words): compared with sibutramine hydrochloride monohydrate
Description: as §1

[6] = Solubility evaluation in distilled water and at several pH values; conditions: 37 °C, thermodynamic from solid
[7] = 75% relative humidity at 25° C., 3 days
[8] = 95% relative humidity at 25° C., 1 week

Compound | residual proportion of the initial level of active ingredient ([4]; 1 week) | residual proportion of the initial level of active ingredient ([4]; 2 weeks) | residual proportion of the initial level of active ingredient ([4]; 4 weeks) | residual proportion of the initial level of active ingredient ([4]; Initial) | residual proportion of the initial level of active ingredient ([5]; 1 week) | residual proportion of the initial level of active ingredient ([5]; 2 weeks) | residual proportion of the initial level of active ingredient ([5]; Initial) | water content (weight %) [3, 7] [%] | water content (weight %) [3, 8] [%] | water content (weight %) ([3]; Initial) [%] | moisture absorption (in words) [3] | heat stability (in words) [4] | photostability (in words) [5] | residual proportion of the initial level of active ingredient ([5]; 4 weeks) | other results
Cl [HCl, hydrochloric acid] | – | – | – | – | – | – | – | – | – | – | – | – | – | – | LD50 in mouse (i.p.) [1]: 40 mg/kg; LD50 in rat (oral) [2]: 900 mg/kg
CC(C)CC(N(C)C)C1(c2ccc(Cl)cc2)CCC1 (centres unmarked) [Sibutramine HCl monohydrate, Sibutramine hydrochloride monohydrate, reference compound] | 1.000 | 0.999 | 0.999 | 1.000 | 1.000 | 0.999 | 1.000 | – | – | – | – | – | – | – | water content (weight %) ([3]; 75% relative humidity at 25° C., 3 days, hydrochloride monohydrate): 5.49%; water content (weight %) ([3]; 95% relative humidity at 25° C., 1 week, hydrochloride monohydrate): 5.5%; water content (weight %) ([3]; Initial, hydrochloride monohydrate): 5.49%; residual proportion of the initial level of active ingredient ([5]; 4 weeks, hydrochloride monohydrate): 0.998; solubility ([6]; pH 1.2, simulated gastric fluid): 13.4 mg/mL; solubility ([6]; pH 4, aqueous buffer): 9.58 mg/mL; solubility ([6]; pH 5.3, aqueous buffer): 6.58 mg/mL; solubility ([6]; pH 6.8, aqueous buffer): 23.1 mg/mL; solubility ([6]; pH 7.4, aqueous buffer): 9.2 mg/mL; solubility ([6]; distilled water, water): 26.2 mg/mL
CC(C)CC(N(C)C)C1(c2ccc(Cl)cc2)CCC1 (centres unmarked) [Sibutramine malonate, sibutramine malonate] | 1.000 | 0.999 | 0.999 | 1.000 | 1.000 | 0.999 | 1.000 | 0.02 | 0.03 | 0.03 | did not absorb moisture | equal to those of sibutramine hydrochloride monohydrate | equal to those of sibutramine hydrochloride monohydrate | 0.999 | –
CC(C)CC(N(C)C)C1(c2ccc(Cl)cc2)CCC1 (centres unmarked) [Sibutramine oxalate, sibutramine oxalate] | 1.000 | 0.999 | 0.999 | 1.000 | 1.000 | 0.999 | 1.000 | 0.03 | 0.02 | 0.02 | did not absorb moisture | equal to those of sibutramine hydrochloride monohydrate | equal to those of sibutramine hydrochloride monohydrate | 0.999 | –
